Legend:
rDlP5βR2 = tested on: T1, rDlP5βR2; assay: NADPH consumption at […] nm, spectrophotometric; type: biochemical, Digitalis lanata; settings: 0.2 mM NADPH, 40 °C, substrate 0.01-1.6 mM
T1 construct: gene P5βR2; recombinant in E. coli SoluBL21, pDEST17 vector, His-tagged, IMAC purified; cloned with primers deduced from D. purpurea P5βR2

rDlP5βR1 = target: T2, rDlP5βR1 (Digitalis lanata, UniProt Q6PQJ9); assay: NADPH consumption at […] nm, spectrophotometric; type: biochemical; settings: 0.2 mM NADPH, 40 °C, substrate 0.01-1.6 mM
T2 construct: recombinant in E. coli, pQE30 vector (Herl et al. 2006), His-tagged, IMAC purified
T2 sequence (Q6PQJ9 whole entry): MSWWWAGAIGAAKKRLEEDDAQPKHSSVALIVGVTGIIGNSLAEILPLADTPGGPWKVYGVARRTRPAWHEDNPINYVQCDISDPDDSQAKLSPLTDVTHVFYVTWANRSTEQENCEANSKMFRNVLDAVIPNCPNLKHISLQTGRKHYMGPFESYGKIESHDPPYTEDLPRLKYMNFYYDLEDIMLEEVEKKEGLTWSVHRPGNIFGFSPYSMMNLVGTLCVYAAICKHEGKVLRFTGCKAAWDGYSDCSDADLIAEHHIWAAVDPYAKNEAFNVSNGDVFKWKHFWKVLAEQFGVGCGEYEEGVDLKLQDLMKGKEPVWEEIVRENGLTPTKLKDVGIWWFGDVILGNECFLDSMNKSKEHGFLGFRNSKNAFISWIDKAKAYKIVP

In the case of C=CC(C)=O [methyl vinyl ketone], the Km (rDlP5βR2) is reported as 210 µM and the Km (rDlP5βR1) is reported as 270 µM.

Work on CC(=O)[C@H]1CC[C@H]2[C@@H]3CCC4=CC(=O)CC[C@]4(C)[C@H]3CC[C@]12C [progesterone] yielded a Km (rDlP5βR2) of 230 µM.
